Measurements: ChEMBL document CHEMBL4689842, “EUbOPEN Chemogenomics Library wave 1” (2021)

Experiments:
Type in all cases: toxicity, cell-based
[1] = test system: HEK-293T; assay: Incucyte cell viability with HEK293T; conditions: human, 10 µM, compound concentration 10 uM
[2] = test system: Fibroblast; assay: Incucyte cell viability with human fibroblast; conditions: 10 µM, compound concentration 10 uM
[3] = test system: U2OS; assay: Incucyte cell viability with U2OS; conditions: human, 10 µM, compound concentration 10 uM
[4] = 0 h, replicate number 1, timepoint 0 hours
[5] = 0 h, replicate number 2, timepoint 0 hours
[6] = 24 h, replicate number 2, timepoint 24 hours
[7] = 6 h, replicate number 1, timepoint 6 hours
[8] = 12 h, replicate number 1, timepoint 12 hours
[9] = 18 h, replicate number 1, timepoint 18 hours
[10] = 18 h, replicate number 2, timepoint 18 hours
[11] = 24 h, replicate number 1, timepoint 24 hours
[12] = 6 h, replicate number 2, timepoint 6 hours
[13] = 12 h, replicate number 2, timepoint 12 hours
Note: filed as whole numbers so only -1 and 0 and 1 occur.

Compound | Growth Rate [1, 4] | Growth Rate [1, 5] | Growth Rate [1, 6] | Growth Rate [2, 4] | Growth Rate [2, 7] | Growth Rate [2, 8] | Growth Rate [2, 9] | Growth Rate [2, 10] | Growth Rate [2, 11] | Growth Rate [2, 6] | Growth Rate [3, 4] | Growth Rate [3, 7] | Growth Rate [3, 8] | Growth Rate [3, 13] | Growth Rate [3, 9] | Growth Rate [3, 11] | Growth Rate [1, 7] | Growth Rate [1, 8] | Growth Rate [1, 9] | Growth Rate [1, 11] | also measured
CN1CCN(c2cnc3c(C4CCN(C(=O)c5ccc(OC(F)(F)F)cc5N)CC4)ncnc3c2)CC1 [BAY-885] | 0 | 1 | 1 | 1 | 0 | 1 | 0 | 1 | 0 | 1 | 0 | 0 | 0 | 1 | 0 | 0 |  |  |  |  | Growth Rate [2, 5]: 0; Growth Rate [3, 12]: 1; Growth Rate [3, 10]: 1; Growth Rate [3, 6]: 1
C=C(c1ccc(C(=O)O)cc1)c1cc2c(cc1C)C(C)(C)CCC2(C)C [BEXAROTENE] | 1 | 0 |  | 0 |  | 1 | 1 |  | 1 |  | 0 |  | 1 |  | 1 | 1 | 0 | 0 | 0 | 0 | Growth Rate [1, 12]: 1; Growth Rate [1, 13]: 1; Growth Rate [3, 5]: -1
CS(=O)(=O)NCC[C@H](NC(=O)c1cncc2c1cnn2-c1ccc(F)cc1)c1ccnc(S(C)(=O)=O)c1 [BI 9307] | 0 |  |  | 0 |  |  |  | 1 |  | 0 | 0 |  | 1 |  | 1 | 1 | 1 | 1 | 1 | 1 | Growth Rate [2, 12]: 0; Growth Rate [2, 13]: 0
CC(=O)N1CCC(c2ccc(C(=O)NC(=N)N)cc2C(F)(F)F)CC1 [BI 9627] | 0 |  |  | 0 | 1 | 0 | 1 | 0 | 0 |  |  | 1 | 1 |  | 1 | 1 |  | 1 | 1 | 1 | Growth Rate [1, 12]: 1; Growth Rate [2, 5]: 1; Growth Rate [2, 12]: 0; Growth Rate [3, 5]: 0
COc1cc(N2CCC(N3CCN(C)CC3)CC2)ccc1Nc1ncc(Cl)c(Nc2ccccc2P(C)(C)=O)n1 [BRIGATINIB] |  |  | 0 | 1 | 0 | 0 | 0 |  | 0 |  | 0 | 0 | 0 | 1 | 0 | 0 | 0 | 0 | 1 | 1 | 
O=C1NC(c2ccccn2)Sc2ccccc21 (stereo not given) [BTZO-4] | 1 |  | 0 | 0 | 1 | 1 | 1 |  | 0 | 1 | 0 | 0 | 0 | 1 | 0 | 0 | 0 | 0 | 0 | 1 | Growth Rate [1, 10]: 1; Growth Rate [3, 10]: 1; Growth Rate [3, 6]: 1
O=C(NOCC1CC1)c1ccc(F)c(F)c1Nc1ccc(I)cc1Cl [CI-1040] | 0 | 1 |  | 0 |  | 1 | 1 |  | 1 |  | 0 | 0 | 0 |  | 0 | 0 |  | 0 | 0 | 0 | Growth Rate [1, 12]: 0; Growth Rate [2, 12]: 1
C#C[C@]1(O)CC[C@H]2[C@@H]3CCc4cc(O)ccc4[C@H]3CC[C@@]21C [ETHINYL ESTRADIOL] | -1 | 0 | 1 |  | 0 | 0 | 0 |  | 0 |  |  | 0 | 0 |  | 0 | 0 |  |  |  |  | Growth Rate [3, 5]: 0; Growth Rate [3, 12]: 1
